In EP0804408B1, “NOVEL 4-SUBSTITUTED 2,6-DI-TERT-BUTYLPHENOL COMPOUNDS, PHARMACEUTICAL COMPOSITIONS CONTAINING SAME AND PREPARATION METHOD THEREFOR” (priority 1994, dated 1996):

Test system: VIH-1/LAI
Experiment: Inactivation of HIV-1: infectious titre before/after treatment, titrated on MT4 cells (p24 antigen ELISA, day +10)
Type: cell-based
Description: Afin d'évaluer l'efficacité d'AVF1, il a été procédé à la comparaison des titres infectieux de suspensions virales avant et après traitement par trois concentrations de AVF1 pendant trois temps de contact. A partir des résultats expérimentaux, il a été défini pour chaque concentration et chaque temps de contact testés, un facteur de […] du titre infectieux du VIH-1. Ce facteur de réduction exprimé en log 10 correspond au rapport du titre infectieux du virus non traité et du titre infectieux du virus traité par AVF1.
L'étude a été réalisée en deux étapes : • Traitement du VIH-1/LAI par trois concentrations d'AVF1 pendant 5, 30 et 60 minutes. • Evaluation des titres infectieux des échantillons obtenus avant et après traitement par AVF1 sur cellules MT4.
Le virus a été dilué au 1/10ème dans chacune des solutions de AVF1 (solution diluée à 2%, 1%, et 0,5%).
Le virus a été maintenu dans chacune de ces solutions pendant 5 minutes, 30 minutes et 60 minutes, à température ambiante puis immédiatement dilué en tampon NTE. Après dilution en tampn NTE, les échantillons ont été ultracentrifugés afin d'éliminer AVF1 et éviter ainsi sa toxicité sur les cellules MT4 utilisées pour le titrage du virus. Cette étape d'ultracentrifugation permet aussi de concentrer les particules virales résiduelles. Après centrifugation, chaque culot a été repris dans 1 ml de milieu de culture, filtré sur un filtre de 0,45 µm aliquoté et stocké à -80°C.
La même expérience a été réalisée deux fois.
La méthode de titrage du VIH-1 sur cellules MT4 est basée sur la détection d'une production virale par les cellules inoculées maintenues 10 jours en culture, mesurée par le dosage de l'antigène p24 VIH-1 dans le surnageant de culture.
Brièvement, les cellules MT4 sont inoculées avec des dilutions en série de virus non traité (contrôle positif) ou avec les échantillons expérimentaux (virus traités par AVF1).
Le VIH infecte les cellules, se multiplie, puis est libéré dans le surnageant de culture par bourgeonnement à la surface de la cellule. Afin de détecter la présence du virus, les surnageants de culture sont récupérés tous les 3 ou 4 jours et testés au jour +10 après l'infection quant à la présence de l'antigène p24 VIH-1.
La détection de l'antigène p24 VIH-1 est réalisée à l'aide d'une technique ELISA sandwich mettant en oeuvre la trousse ELAVIA AgI commercialisée par Diagnostic Pasteur, qui permet la détection de 50 pg d'antigène p24 par millilitre de surnageant.
Le principe de cette méthode est brièvement le suivant : l'antigène p24 libéré après la lyse des particules virales présentes dans le surnageant est complexé à des anticorps anti-VIH-1 immobilisés dans les puits des microplaques. L'antigène est alors révélé par anticorps polyclonaux anti-VIH-1 biotinylés, reconnus eux-mêmes par un conjugué streptavidine péroxydase. La présence de ce complexe est révélée par une réaction enzymatique après addition du substrat (H2O2) et du chromogène (OPD). Le produit de cette réaction est coloré et peut donc être détecté par mesure de la densité optique à 492 nm. La quantité de produit formé au cours de la réaction enzymatique est directement proportionnelle à la quantité d'antigène présente dans l'échantillon testé.
Les échantillons à tester ont été dilués ou non dans du milieu de culture. 1 ml d'échantillon non dilué, et 0,4 ml des dilutions suivantes ont été inoculés sur un culot de 1,2 10^6 cellules MT4. Après l'adsoption virale pendant 1 heure à 37°C, l'innoculum viral a été éliminé et les cellules lavées 3 fois en milieu de culture. Les cellules ont alors été resuspendues dans 4 ml de milieu de culture, distribuées dans 4 puits de plaque 24 puits et incubées à 37°C en présence de 5% de CO2.
Tous les 3 ou 4 jours, les surnageants de culture contenus dans chaque puits ont été prélevés et stockés à -80°C puis testés quant à la présence d'antigène p24 VIH-1.
Le titre infectieux est exprimé en "tissue Culture Infectious Dose 50" par millilitre d'échantillon (TCID 50/ml). […]

[1] = AVF1 0,5%, 5 minutes, 1ère expérience
[2] = AVF1 0,5%, 5 minutes, 2ème expérience
[3] = AVF1 0,5%, 30 minutes, 1ère expérience
[4] = AVF1 0,5%, 30 minutes, 2ème expérience
[5] = AVF1 0,5%, 60 minutes, 1ère expérience
[6] = AVF1 0,5%, 60 minutes, 2ème expérience
[7] = AVF1 1%, 5 minutes, 1ère expérience
[8] = AVF1 1%, 5 minutes, 2ème expérience
[9] = AVF1 1%, 30 minutes, 1ère expérience
[10] = AVF1 1%, 30 minutes, 2ème expérience
[11] = AVF1 1%, 60 minutes, 1ère expérience
[12] = AVF1 1%, 60 minutes, 2ème expérience
[13] = AVF1 2%, 5 minutes, 1ère expérience
[14] = AVF1 2%, 5 minutes, 2ème expérience
[15] = AVF1 2%, 30 minutes, 1ère expérience
[16] = AVF1 2%, 30 minutes, 2ème expérience
[17] = AVF1 2%, 60 minutes, 1ère expérience
[18] = AVF1 2%, 60 minutes, 2ème expérience

## CC(C)(C)c1cc(C(=O)OCCOCCOCCOCCOCCOCCOCCOCCO)cc(C(C)(C)C)c1O [AVF1, 3,5-di-t-butyl-4-hydroxybenzoate d'octaoxyéthylèneglycol]
[1]
  Facteur de réduction Log TCID50/ml: > 6,9 Log TCID50/ml
  Titre TCID 50/ml: < 4 TCID 50/ml
[2]
  Facteur de réduction Log TCID50/ml: > 6,9 Log TCID50/ml
  Titre TCID 50/ml: < 4 TCID 50/ml
[3]
  Facteur de réduction Log TCID50/ml: > 6,9 Log TCID50/ml
  Titre TCID 50/ml: < 4 TCID 50/ml
[4]
  Facteur de réduction Log TCID50/ml: > 6,9 Log TCID50/ml
  Titre TCID 50/ml: < 4 TCID 50/ml
[5]
  Facteur de réduction Log TCID50/ml: > 6,9 Log TCID50/ml
  Titre TCID 50/ml: < 4 TCID 50/ml
[6]
  Facteur de réduction Log TCID50/ml: > 6,9 Log TCID50/ml
  Titre TCID 50/ml: < 4 TCID 50/ml
[7]
  Facteur de réduction Log TCID50/ml: > 6,9 Log TCID50/ml
  Titre TCID 50/ml: < 4 TCID 50/ml
[8]
  Facteur de réduction Log TCID50/ml: > 6,9 Log TCID50/ml
  Titre TCID 50/ml: < 4 TCID 50/ml
[9]
  Facteur de réduction Log TCID50/ml: > 6,9 Log TCID50/ml
  Titre TCID 50/ml: < 4 TCID 50/ml
[10]
  Facteur de réduction Log TCID50/ml: > 6,9 Log TCID50/ml
  Titre TCID 50/ml: < 4 TCID 50/ml
[11]
  Facteur de réduction Log TCID50/ml: > 6,9 Log TCID50/ml
  Titre TCID 50/ml: < 4 TCID 50/ml
[12]
  Facteur de réduction Log TCID50/ml: > 6,9 Log TCID50/ml
  Titre TCID 50/ml: < 4 TCID 50/ml
[13]
  Facteur de réduction Log TCID50/ml: > 6,9 Log TCID50/ml
  Titre TCID 50/ml: < 4 TCID 50/ml
[14]
  Facteur de réduction Log TCID50/ml: > 6,9 Log TCID50/ml
  Titre TCID 50/ml: < 4 TCID 50/ml
[15]
  Facteur de réduction Log TCID50/ml: > 6,9 Log TCID50/ml
  Titre TCID 50/ml: < 4 TCID 50/ml
[16]
  Facteur de réduction Log TCID50/ml: > 6,9 Log TCID50/ml
  Titre TCID 50/ml: < 4 TCID 50/ml
[17]
  Facteur de réduction Log TCID50/ml: > 6,9 Log TCID50/ml
  Titre TCID 50/ml: < 4 TCID 50/ml
[18]
  Facteur de réduction Log TCID50/ml: > 6,9 Log TCID50/ml
  Titre TCID 50/ml: < 4 TCID 50/ml
Solution à 0,5% de AVF1, 5 minutes
  réduction du pouvoir infectieux: ≥ 6,9 log TCID50/ml
Whatever the concentration (2%, 1%, 0,5%) and contact time (5, 30, 60 minutes)
  particules infectieuses VIH-1 détectées: Aucune particule infectieuse VIH-1 n'a été détectée
